Source: ChEMBL document CHEMBL1201862, “PubChem BioAssay data set” (2004)
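All cell lines were grown in 96-well plates and treated with compound for 48 hours. GI50 is the concentration that inhibits growth by half.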 Calls of active or inactive are those of the source. Rule as the data show it: active = GI50 up to about 1.1 µM and inactive = higher.

Experiments:
Assay in all cases: inhibition of tumour cell growth, NCI panel, 48 h
[1] = tested on: A498
[2] = tested on: CCRF-CEM
[3] = tested on: EKVX
[4] = tested on: HCT-116
[5] = tested on: HCT-15
[6] = tested on: K562
[7] = tested on: KM12
[8] = tested on: LOX IMVI
[9] = tested on: NCI-H226
[10] = tested on: NCI-H460
[11] = tested on: OVCAR-8
[12] = tested on: RPMI-8226
[13] = tested on: RXF 393
[14] = tested on: SF-539
[15] = tested on: SK-MEL-2
[16] = tested on: SK-OV-3
[17] = tested on: SNB-19
[18] = tested on: TK-10
[19] = tested on: U-251
[20] = tested on: UACC-62

Row | Compound | GI50 [1] | GI50 [2] | GI50 [3] | GI50 [4] | GI50 [5] [µM] | GI50 [6] | GI50 [7] | GI50 [8] | GI50 [9] | GI50 [10] | GI50 [11] | GI50 [12] | GI50 [13] | GI50 [14] | GI50 [15] | GI50 [16] | GI50 [17] | GI50 [18] | GI50 [19] | GI50 [20]
1 | S=c1nc(Nc2ccc(Br)cc2)c2c3c(sc2[nH]1)CN(N1CCc2c(sc4[nH]c(=S)nc(Nc5ccc(Br)cc5)c24)C1)CC3 | 11.3 µM (inactive) | 23.9 µM (inactive) | 35.2 µM (inactive) | 12.3 µM (inactive) | 22.5 | 11.1 µM (inactive) | 21.6 µM (inactive) | 8.67 µM (inactive) | 20.8 µM (inactive) | 23.8 µM (inactive) | > 50 µM (inactive) | 19.2 µM (inactive) | 10.2 µM (inactive) | 29.3 µM (inactive) | 14.9 µM (inactive) | > 50 µM (inactive) | 22.5 µM (inactive) | > 50 µM (inactive) | 9.42 µM (inactive) | 15.1 µM (inactive)
2 | Cc1c(N2C(=O)CS(=O)(=O)C2c2cccc(Oc3ccccc3)c2)c(=O)n(-c2ccccc2)n1C (stereo not drawn) | < 0.01 µM (active) | 45.9 µM (inactive) | 46.7 µM (inactive) | 26.7 µM (inactive) | 61.5 | 24.3 µM (inactive) | 19.4 µM (inactive) | 47.6 µM (inactive) | 42.6 µM (inactive) | 37.2 µM (inactive) | 57.3 µM (inactive) | 27.2 µM (inactive) | 21.6 µM (inactive) | > 100 µM (inactive) | 72.9 µM (inactive) | 61.8 µM (inactive) | > 100 µM (inactive) | 11.2 µM (inactive) | > 100 µM (inactive) | 66.2 µM (inactive)
3 | O=C(c1ccc(Cl)cc1)N(C(=O)N1CCC(c2ccccc2)CC1)c1ccccc1 | 20.4 µM (inactive) | 18.9 µM (inactive) | 10.4 µM (inactive) | 17.5 µM (inactive) | 15 | 32.1 µM (inactive) | 11.4 µM (inactive) | 28.1 µM (inactive) | 17.8 µM (inactive) | – | 33.8 µM (inactive) | 13.7 µM (inactive) | 11.9 µM (inactive) | 65 µM (inactive) | 37.2 µM (inactive) | > 100 µM (inactive) | 72.1 µM (inactive) | 30.7 µM (inactive) | 39.5 µM (inactive) | 31.8 µM (inactive)
4 | CN(C)C(=S)/N=c1\ss/c(=N\S(=O)(=O)c2ccccc2)n1-c1ccccc1 | 50.9 µM (inactive) | 0.333 µM (active) | 59.6 µM (inactive) | – | 7.28 | 0.953 µM (active) | 0.217 µM (active) | 4.06 µM (inactive) | 0.458 µM (active) | – | 23.7 µM (inactive) | 0.344 µM (active) | 57.5 µM (inactive) | 19.7 µM (inactive) | 11.5 µM (inactive) | 89.7 µM (inactive) | – | 40.1 µM (inactive) | 27 µM (inactive) | 0.297 µM (active)
5 | Clc1ccc(CCc2ccncn2)c(Cl)c1 | 86.5 µM (inactive) | – | 9.68 µM (inactive) | 52.5 µM (inactive) | 79.6 | 63.8 µM (inactive) | 63 µM (inactive) | > 100 µM (inactive) | 60.5 µM (inactive) | > 100 µM (inactive) | 97.3 µM (inactive) | 25.5 µM (inactive) | 27 µM (inactive) | > 100 µM (inactive) | > 100 µM (inactive) | > 100 µM (inactive) | 35.6 µM (inactive) | > 100 µM (inactive) | 41.5 µM (inactive) | 53.2 µM (inactive)
6 | CC12CC3(C)CC(C)(C1)CC(N=[N+]=[N-])(C2)C3 | > 100 µM (inactive) | > 100 µM (inactive) | > 100 µM (inactive) | > 100 µM (inactive) | – | > 100 µM (inactive) | > 100 µM (inactive) | > 100 µM (inactive) | > 100 µM (inactive) | > 100 µM (inactive) | > 100 µM (inactive) | > 100 µM (inactive) | > 100 µM (inactive) | > 100 µM (inactive) | > 100 µM (inactive) | > 100 µM (inactive) | > 100 µM (inactive) | > 100 µM (inactive) | > 100 µM (inactive) | > 100 µM (inactive)
7 | O=C(Nc1nc2ncn(CCNCc3ccccc3)c2c(=O)[nH]1)c1ccccc1 | > 100 µM (inactive) | > 100 µM (inactive) | > 100 µM (inactive) | > 100 µM (inactive) | > 100 | > 100 µM (inactive) | > 100 µM (inactive) | > 100 µM (inactive) | > 100 µM (inactive) | > 100 µM (inactive) | > 100 µM (inactive) | 65.3 µM (inactive) | 91 µM (inactive) | > 100 µM (inactive) | > 100 µM (inactive) | > 100 µM (inactive) | – | > 100 µM (inactive) | > 100 µM (inactive) | > 100 µM (inactive)
8 | CCN(CC)CCNCc1cc(Cl)cc2c1OCOC2 | > 10 µM (inactive) | > 10 µM (inactive) | > 10 µM (inactive) | > 10 µM (inactive) | > 10 | > 10 µM (inactive) | > 10 µM (inactive) | > 10 µM (inactive) | > 10 µM (inactive) | > 10 µM (inactive) | > 10 µM (inactive) | > 10 µM (inactive) | > 10 µM (inactive) | > 10 µM (inactive) | > 10 µM (inactive) | > 10 µM (inactive) | > 10 µM (inactive) | > 10 µM (inactive) | > 10 µM (inactive) | > 10 µM (inactive)
9 | COC(=O)c1cc(C)ccc1CC(Cc1cccc(C)c1)C(=O)OC (stereo not drawn) | > 100 µM (inactive) | 46.2 µM (inactive) | 59.2 µM (inactive) | 80.7 µM (inactive) | > 100 | 45.7 µM (inactive) | > 100 µM (inactive) | > 100 µM (inactive) | > 100 µM (inactive) | > 100 µM (inactive) | > 100 µM (inactive) | 29.6 µM (inactive) | 29.2 µM (inactive) | > 100 µM (inactive) | 47.3 µM (inactive) | 4.06 µM (inactive) | > 100 µM (inactive) | > 100 µM (inactive) | > 100 µM (inactive) | –
10 | COc1c(Cl)ccc(Cl)c1C(=O)NNC(=O)c1c(Cl)c(Cl)c(Cl)c(Cl)c1-c1nc2cc(C(=O)c3ccccc3)ccc2[nH]1 | 61.2 µM (inactive) | 28.8 µM (inactive) | 36.8 µM (inactive) | 66.7 µM (inactive) | 35 | 26.7 µM (inactive) | 80.5 µM (inactive) | 55.1 µM (inactive) | 45.6 µM (inactive) | – | 72.9 µM (inactive) | 24.2 µM (inactive) | 19.5 µM (inactive) | > 100 µM (inactive) | 31.9 µM (inactive) | > 100 µM (inactive) | > 100 µM (inactive) | 72.3 µM (inactive) | 53.2 µM (inactive) | –
11 | COc1ccc(C2=C(Cl)c3cc(OC)c(OC)cc3C2Cl)cc1 (stereo not drawn) | 13.2 µM (inactive) | 2.84 µM (inactive) | 16.9 µM (inactive) | 14.2 µM (inactive) | 12.3 | 5.24 µM (inactive) | 13.6 µM (inactive) | 12.2 µM (inactive) | 21.3 µM (inactive) | 9.71 µM (inactive) | 16.5 µM (inactive) | 8.17 µM (inactive) | 14.5 µM (inactive) | 15.3 µM (inactive) | 12.1 µM (inactive) | 13.6 µM (inactive) | 18.7 µM (inactive) | 19.7 µM (inactive) | 13.7 µM (inactive) | 14.6 µM (inactive)
12 | O=C1C(c2ccc(C3=[N+]([O-])c4cc([N+](=O)[O-])ccc4C3=O)cc2)=[N+]([O-])c2cc([N+](=O)[O-])ccc21 | > 10 µM (inactive) | > 10 µM (inactive) | > 10 µM (inactive) | > 10 µM (inactive) | > 10 | > 10 µM (inactive) | > 10 µM (inactive) | > 10 µM (inactive) | > 10 µM (inactive) | > 10 µM (inactive) | > 10 µM (inactive) | > 10 µM (inactive) | > 10 µM (inactive) | > 10 µM (inactive) | > 10 µM (inactive) | > 10 µM (inactive) | > 10 µM (inactive) | > 10 µM (inactive) | > 10 µM (inactive) | > 10 µM (inactive)
13 | CC(=O)OCC1OC(n2cc(F)c(=O)[nH]c2=O)C(N)C(OC(C)=O)C1OC(C)=O (stereo not drawn) | > 100 µM (inactive) | > 100 µM (inactive) | > 100 µM (inactive) | > 100 µM (inactive) | > 100 | > 100 µM (inactive) | > 100 µM (inactive) | > 100 µM (inactive) | > 100 µM (inactive) | > 100 µM (inactive) | > 100 µM (inactive) | > 100 µM (inactive) | > 100 µM (inactive) | > 100 µM (inactive) | > 100 µM (inactive) | > 100 µM (inactive) | > 100 µM (inactive) | – | > 100 µM (inactive) | > 100 µM (inactive)
14 | S=c1sc2cscc2s1 | 71.6 µM (inactive) | 22 µM (inactive) | 19.5 µM (inactive) | 19.5 µM (inactive) | 34 | 42.6 µM (inactive) | 17.6 µM (inactive) | 39.8 µM (inactive) | 15.5 µM (inactive) | 24.1 µM (inactive) | 21.7 µM (inactive) | 47.6 µM (inactive) | 35.2 µM (inactive) | 23 µM (inactive) | 38 µM (inactive) | 27.5 µM (inactive) | 21.3 µM (inactive) | 23 µM (inactive) | 53.2 µM (inactive) | 18.2 µM (inactive)
15 | COc1ccc(C2C(N)=NCC2c2ccccn2)cc1 (stereo not drawn) | > 100 µM (inactive) | > 100 µM (inactive) | > 100 µM (inactive) | > 100 µM (inactive) | – | > 100 µM (inactive) | > 100 µM (inactive) | > 100 µM (inactive) | > 100 µM (inactive) | > 100 µM (inactive) | > 100 µM (inactive) | > 100 µM (inactive) | > 100 µM (inactive) | > 100 µM (inactive) | > 100 µM (inactive) | > 100 µM (inactive) | > 100 µM (inactive) | > 100 µM (inactive) | > 100 µM (inactive) | > 100 µM (inactive)
